Reference: patent US11530211B2, “Dihydroindolizinone derivative” (DAIICHI SANKYO COMPANY, LIMITED, priority 2018, dated 2022)

Assays:
[1] = tested on: human iPS cell Toe strain; test: Effect to promote differentiation from human iPS cells into insulin-producing cells (insulin-positive cell rate, imaging); type: cell-based; conditions: Homo sapiens, efficacy of 10 μM of the compound of Example 1 taken as 100%; 0.01 to 10 μM; read-out: E050
Text: The evaluation system of the effect (efficacy) to promote differentiation from human iPS cells into insulin-producing cells was constructed with reference to known information (Non Patent Document 6). Further, the medium used in each differentiation stage was also produced with reference to known information (differentiation media A to E (Media A to E) described in Non Patent Document 6 were used respectively for stages 1 to 5; however, a medium free from GLP-1 receptor agonist and nicotinamide was used as differentiation medium E).
In order to evaluate the efficacy of each compound, the compound of Example 1 was used as a positive control, and dimethylsulfoxide (DMSO) (SIGMA, D2650) with a final concentration of 0.1% was used as a control untreated with compounds. […] In the following evaluation, the compound solutions were added to the medium to 0.1% that is the final concentration of DMSO. First, induction from human iPS cell Toe strain (National Institutes of Biomedical Innovation, Health and Nutrition) into cells on day 7 of culture (2 days after replacement with differentiation medium C (cells in the differentiation process from FOXA2-positive primitive gut tube cells into PDX1-positive pancreatic progenitor cells)) was performed according to the method of Non Patent Document 6 for “inducing differentiation from human iPS cells into pancreatic β cells”, and the cells were collected and thereafter stored in liquid nitrogen using Bambanker (NIPPON Genetics Co, Ltd.) at 1×10^7 cells/mL/tube, to produce a cell stock for evaluation. The cell stock was dissolved at the start of the evaluation of efficacy, suspended in differentiation medium C for stage 3 (DMEM high glucose (Life technologies, 11965092), 0.25 μM SANT-1, 0.1 μM LDN193189 (Stemgent, 04-0074), 10 μM SB431542, 2 μM Retinoic acid (Stemgent, 04-0021), 1% B27 serum free supplement (Life technologies, 17504044) and thereafter seeded in a 96-well plate (Corning, #3340) coated with Synthemax II (Corning, #5656) at 1×10^5 cells/well. After culturing for 2 days, the medium was removed, and new differentiation medium C for stage 3 with the compound or only DMSO added was added thereto at 100 μL/well. After culturing for 2 days, the medium was removed, and new differentiation medium D for stage 4 (DMEM high glucose, 0.1 μM LDN193189, 5 μM TGF-β type I receptor kinase inhibitor II (Calbiochem 616452), 0.3 μM (−)-indolactam V (Enzo life science ALX-420-011-C300), 1% B27 serum free supplement) with the compound or only DMSO added was added thereto at 100 μL/well. After culturing for 2 to 3 days, the medium was removed, and new differentiation medium E for stage 5 (GLP-1 receptor agonist and nicotinamide-free; Knockout […] (Life technologies, 12660012), 1% B27 serum free supplement) with the compound or only DMSO added was added thereto at 200 μL/well. After culturing for 2 days, the medium was removed, and a 4% paraformaldehyde phosphorus acid buffer (Wako, 163-20145) was added thereto at 150 μL/well and left standing for 30 to 60 minutes at room temperature to fix the cells. A phosphorus acid buffer (PBS) (Takara, T9181) containing 1% Triton X-100 (Sigma, T8787) was left standing for 15 minutes at room temperature, then washed with PBS-T (Takara, T9183), and was blocked for 1 hour using 20% Blocking One (Nacalai tesque, Tokyo, Japan) diluted with PBS-T at room temperature. After the removal of Blocking One, guinea pig anti-insulin antibody (Abcam, ab7842) diluted 200-fold with 20% Blocking One was added thereto at 50 μL/well, followed by standing at 4° C. overnight. After washing with PBS-T 3 times, […]-labeled anti-guinea pig antibody (Life Technologies, A11075) diluted 1000-fold with 20% Blocking One and 6-diamidino-2-phenylindole (DAPI) (Roche Diagnostics, Basel, Switzerland) were added thereto, followed by standing at room temperature for 2 hours. After washing with PBS-T 3 times, the fluorescence images of the cells were analyzed. […]

[2] = target: T1, UCHL1 (Homo sapiens, UniProt P09936); test: Evaluation of UCHL1 activation (ubiquitin-AMC hydrolysis); conditions: test compound 10 μM; control (DMSO) = 100; fluorescence increment 10 minutes to 2 hours; n=3
T1 sequence (P09936 1-223): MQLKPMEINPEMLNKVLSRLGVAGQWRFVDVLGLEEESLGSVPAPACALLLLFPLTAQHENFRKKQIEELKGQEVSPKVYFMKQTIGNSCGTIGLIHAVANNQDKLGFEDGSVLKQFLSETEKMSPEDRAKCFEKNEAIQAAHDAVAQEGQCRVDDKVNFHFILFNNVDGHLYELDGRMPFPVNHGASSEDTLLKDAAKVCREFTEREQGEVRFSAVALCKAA
Description: Using dimethylsulfoxide (DMSO) (SIGMA, D2650) as a control untreated with compounds (which will be hereinafter referred to as control), each test compound was dissolved in DMSO in use. DMSO and the test compound solutions were each added to the enzymatic reaction solution to a final concentration of 2%. […] The amount of fluorescence (excitation wavelength: 350 nm and fluorescence wavelength: 440 nm) of AMC generated due to hydrolysis of the fluorescence-labeled substrate was measured 10 minutes and 2 hours after the start of the enzymatic reaction, to calculate the increment in amount of fluorescence by subtraction between the two.
The amount of fluorescence of AMC was measured using Envision (PerkinElmer). The increment in amount of fluorescence of the control was taken as 100%, and the increment in amount of fluorescence of each test compound was expressed as a percentage (%) based on this, to obtain an enzymatic activity value. Enzymatic activity value (%)={(Amount of fluorescence increment of each test compound)/(Amount of fluorescence increment of control)}×100

[3] = tested on: ZDF disease rats; test: Glucose tolerance test after 4 weeks repeated oral administration in ZDF rats; type: in vivo, rat; conditions: 10 mg/kg orally once a day for 4 weeks; Day 28; 60 minutes after 2 g/kg glucose loading minus before loading; male ZDF disease rats
Description: After repeated oral administration of the compound according to Example 9 to 8 week-old male ZDF disease rats (CHARLES RIVER LABORATORIES JAPAN, INC.) for 4 weeks (from Day 1 to 28), a glucose tolerance test was conducted on Day 28 to investigate the effect to improve the pathological conditions of diabetes. On Day 0, the ZDF disease rats were subjected to measurement of blood sugar, insulin value, and body weight, as needed, and were grouped by multivariable block assignment. The experiments were conducted in a total of 3 groups of 4 male ZDF Lean rats (lean group), a group of 8 ZDF disease rats with a 0.5 w/v % methylcellulose 400 solution (which will be hereinafter referred to as 0.5% MC) administered (vehicle group), and a group of 8 ZDF disease rats with the compound of Example 9 administered (Example 9 group). The compound according to Example 9 was suspended in 0.5% MC and was orally administered 10 mg/kg once a day.
The glucose tolerance test was conducted as follows. […] Before the glucose loading and 60 minutes after the glucose loading, blood was collected from the tail vein, and the blood sugar was measured.
The blood sugar was measured using glucose C2-Test Wako (Cat No. 437-90902 for 700 times, available from Wako Pure Chemical Industries, Ltd).

With `O=C1CCC(C(=O)Nc2ncc(-c3ccc(OC(F)(F)F)cc3)s2)n2cccc21` (stereo not drawn) [Example 9, 8-Oxo-N-[5-[4-(trifluoromethoxy)phenyl]thiazol-2-yl]-6,7-dihydro-5H-indolizine-5-carboxamide] the EC50 [1] was 230 nM, the “Enzyme activity (c/o)” value [2] was 270 c/o and the “Δ Plasma glucose” value [3] was -275.8 mg/dL.
